Assay results taken from the supplement of paper PMC13207355.
Where a name gives a salt, the structure may show the parent alone.

Assays:
Details in all cases: exposure time: 72 h
[1] = tested on: E57 (patient-derived glioblastoma stem cells of mesenchymal subtype); test: phenotypic distance (Euclidean, principal components) from DMSO controls (arbitrary units); higher = stronger morphological change
[2] = tested on: FT3469 (normal neural stem cell line); test: as above
[3] = tested on: E13 (patient-derived glioblastoma stem cells of classical subtype); test: as above
[4] = tested on: E28 (patient-derived glioblastoma stem cells of classical subtype); test: as above
[5] = tested on: E31 (patient-derived glioblastoma stem cells of proneural subtype); test: as above
[6] = tested on: E34 (patient-derived glioblastoma stem cells of proneural subtype); test: as above
[7] = tested on: E21 (patient-derived glioblastoma stem cells of mesenchymal subtype); test: as above
[8] = tested on: E57; test: surviving fraction (nuclei count normalised to DMSO); higher = more cells surviving (less toxic)
[9] = tested on: FT3469; test: as above
[10] = tested on: E13; test: as above
[11] = tested on: E28; test: as above
[12] = tested on: E31; test: as above
[13] = tested on: E34; test: as above
[14] = tested on: E21; test: as above
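Wherever phenotypic distance (Euclidean, principal components) from DMSO controls is given: cell Painting imaging in 384-well plates, CellProfiler features reduced to at least 20 principal components, Euclidean distance versus same-plate DMSO vehicle wells (0.1% v/v), median over six images per well.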
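Wherever surviving fraction (nuclei count normalised to DMSO) is given: nuclei counted by high-content imaging of Hoechst-stained cells in laminin-coated 384-well plates, relative to 0.1% DMSO vehicle wells, with staurosporine as cell-death control.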

CC(NCCC(c1ccccc1)c1ccccc1)c1ccccc1 (stereo not drawn) [Fendiline hydrochloride]
Details | phenotypic distance | surviving fraction
[1], 4.1 nM | 0.595 | –
[1], 12.3 nM | 0.626 | –
[1], 37 nM | 0.661 | –
[1], 111.1 nM | 0.669 | –
[1], 333.3 nM | 0.423 | –
[1], 1000 nM | 0.376 | –
[1], 3000 nM | 0.679 | –
[2], 4.1 nM | 0.761 | –
[2], 12.3 nM | 0.264 | –
[2], 37 nM | 0.282 | –
[2], 111.1 nM | 0.794 | –
[2], 333.3 nM | 0.524 | –
[2], 1000 nM | 1.26 | –
[2], 3000 nM | 0.835 | –
[3], 4.1 nM | 1.49 | –
[3], 12.3 nM | 0.566 | –
[3], 37 nM | 0.415 | –
[3], 111.1 nM | 1.15 | –
[3], 333.3 nM | 0.412 | –
[3], 1000 nM | 0.615 | –
[3], 3000 nM | 1.21 | –
[4], 4.1 nM | 0.507 | –
[4], 12.3 nM | 0.605 | –
[4], 37 nM | 0.415 | –
[4], 111.1 nM | 0.773 | –
[4], 333.3 nM | 0.762 | –
[4], 1000 nM | 0.645 | –
[4], 3000 nM | 0.861 | –
[5], 4.1 nM | 0.374 | –
[5], 12.3 nM | 0.903 | –
[5], 37 nM | 0.419 | –
[5], 111.1 nM | 0.715 | –
[5], 333.3 nM | 0.436 | –
[5], 1000 nM | 0.581 | –
[5], 3000 nM | 1.24 | –
[6], 4.1 nM | 0.542 | –
[6], 12.3 nM | 0.85 | –
[6], 37 nM | 0.586 | –
[6], 111.1 nM | 0.878 | –
[6], 333.3 nM | 0.354 | –
[6], 1000 nM | 0.817 | –
[6], 3000 nM | 0.823 | –
[7], 4.1 nM | 0.402 | –
[7], 12.3 nM | 0.709 | –
[7], 37 nM | 0.475 | –
[7], 111.1 nM | 0.445 | –
[7], 333.3 nM | 0.634 | –
[7], 1000 nM | 0.668 | –
[7], 3000 nM | 0.648 | –
[8], 4.1 nM | – | 0.982
[8], 12.3 nM | – | 1.03
[8], 37 nM | – | 1.01
[8], 111.1 nM | – | 1.08
[8], 333.3 nM | – | 1.07
[8], 1000 nM | – | 1.04
[8], 3000 nM | – | 1.09
[9], 4.1 nM | – | 0.944
[9], 12.3 nM | – | 0.918
[9], 37 nM | – | 0.939
[9], 111.1 nM | – | 1.11
[9], 333.3 nM | – | 0.92
[9], 1000 nM | – | 1.28
[9], 3000 nM | – | 0.989
[10], 4.1 nM | – | 0.853
[10], 12.3 nM | – | 0.993
[10], 37 nM | – | 0.984
[10], 111.1 nM | – | 0.898
[10], 333.3 nM | – | 1.03
[10], 1000 nM | – | 1.1
[10], 3000 nM | – | 0.976
[11], 4.1 nM | – | 0.897
[11], 12.3 nM | – | 1.08
[11], 37 nM | – | 0.956
[11], 111.1 nM | – | 1.12
[11], 333.3 nM | – | 0.967
[11], 1000 nM | – | 1.08
[11], 3000 nM | – | 1.04
[12], 4.1 nM | – | 1.09
[12], 12.3 nM | – | 0.954
[12], 37 nM | – | 0.955
[12], 111.1 nM | – | 1.02
[12], 333.3 nM | – | 0.968
[12], 1000 nM | – | 0.988
[12], 3000 nM | – | 1.15
[13], 4.1 nM | – | 1.02
[13], 12.3 nM | – | 0.952
[13], 37 nM | – | 0.969
[13], 111.1 nM | – | 0.959
[13], 333.3 nM | – | 1.07
[13], 1000 nM | – | 0.954
[13], 3000 nM | – | 1.09
[14], 4.1 nM | – | 1.03
[14], 12.3 nM | – | 0.876
[14], 37 nM | – | 0.962
[14], 111.1 nM | – | 0.95
[14], 333.3 nM | – | 1.01
[14], 1000 nM | – | 0.962
[14], 3000 nM | – | 0.961
